In ChEMBL document CHEMBL5465560, “Selectivity Literature for EUbOPEN Chemogenomic Library” (2024) one finds % of control and % of inhibition data, which are given here for eight molecules.

The target in assay [1] is T1, Serine/threonine-protein kinase TBK1 (Homo sapiens) (UniProt Q9UHD2).
T1 sequence (whole entry): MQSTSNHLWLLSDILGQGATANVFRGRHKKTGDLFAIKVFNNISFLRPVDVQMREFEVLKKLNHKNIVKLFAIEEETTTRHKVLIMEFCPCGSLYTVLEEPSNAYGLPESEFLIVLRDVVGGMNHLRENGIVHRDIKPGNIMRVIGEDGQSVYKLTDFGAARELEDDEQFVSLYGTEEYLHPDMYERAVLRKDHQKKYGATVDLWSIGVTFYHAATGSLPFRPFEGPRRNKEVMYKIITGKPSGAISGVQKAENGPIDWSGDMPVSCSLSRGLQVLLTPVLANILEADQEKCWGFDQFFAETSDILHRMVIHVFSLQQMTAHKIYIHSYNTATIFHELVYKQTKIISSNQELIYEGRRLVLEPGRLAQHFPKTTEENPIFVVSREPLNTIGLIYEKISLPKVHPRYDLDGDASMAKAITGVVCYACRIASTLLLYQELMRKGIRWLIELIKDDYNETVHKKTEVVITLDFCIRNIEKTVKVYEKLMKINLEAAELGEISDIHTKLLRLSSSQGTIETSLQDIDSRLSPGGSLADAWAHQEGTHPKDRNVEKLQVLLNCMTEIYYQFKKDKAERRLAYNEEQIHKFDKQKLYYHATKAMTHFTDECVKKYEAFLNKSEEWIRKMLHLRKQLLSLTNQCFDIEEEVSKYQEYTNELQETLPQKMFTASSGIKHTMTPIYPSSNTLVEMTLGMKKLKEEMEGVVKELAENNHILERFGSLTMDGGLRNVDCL
The assay is described as follows: Selectivity interaction (Kinase panel (Z-LYTE Assay)) EUB0001632a TBK1. Particulars: at 10 µM.

Assay [2] has as its target CDK17/Cyclin-Y (Homo sapiens) (UniProt Q00537+Q8ND76). The assay is described as follows: Selectivity interaction (Kinase panel (Z-LYTE Assay)) EUB0001632a CDK17. Type of assay: protein-complex assay. Particulars: at 10 µM.
Assay [3] addresses Fibroblast growth factor receptor 2 (Homo sapiens) (UniProt P21802). The assay is described as follows: Selectivity interaction (Ambit KINOMEscan and KiNATiv profiling in Jurkat cells) EUB0000090b FGFR2. The format is cell-based. Particulars: at 1 µM.
Assay [4] deals with Cyclin-dependent kinase 3 (Homo sapiens) (UniProt Q00526). Briefly: Selectivity interaction (Ambit KINOMEscan and KiNATiv profiling in Jurkat cells) EUB0000090b CDK3. Type of assay: cell-based. The settings on record: at 1 µM.
Chain of Cyclin-dependent kinase 3 (Homo sapiens) (Q00526 whole entry, looked up): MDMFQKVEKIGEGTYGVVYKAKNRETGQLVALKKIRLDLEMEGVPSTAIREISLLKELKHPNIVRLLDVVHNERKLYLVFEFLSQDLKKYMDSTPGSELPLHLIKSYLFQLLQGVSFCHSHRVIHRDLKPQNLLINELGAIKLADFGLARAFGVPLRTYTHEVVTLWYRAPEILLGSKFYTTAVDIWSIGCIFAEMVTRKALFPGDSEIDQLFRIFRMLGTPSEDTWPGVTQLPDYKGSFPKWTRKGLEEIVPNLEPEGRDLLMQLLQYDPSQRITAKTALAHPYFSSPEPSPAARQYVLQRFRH
Assay [5] has as its target T2, Atypical kinase COQ8B, mitochondrial (Homo sapiens) (UniProt Q96D53).
T2 sequence (whole entry): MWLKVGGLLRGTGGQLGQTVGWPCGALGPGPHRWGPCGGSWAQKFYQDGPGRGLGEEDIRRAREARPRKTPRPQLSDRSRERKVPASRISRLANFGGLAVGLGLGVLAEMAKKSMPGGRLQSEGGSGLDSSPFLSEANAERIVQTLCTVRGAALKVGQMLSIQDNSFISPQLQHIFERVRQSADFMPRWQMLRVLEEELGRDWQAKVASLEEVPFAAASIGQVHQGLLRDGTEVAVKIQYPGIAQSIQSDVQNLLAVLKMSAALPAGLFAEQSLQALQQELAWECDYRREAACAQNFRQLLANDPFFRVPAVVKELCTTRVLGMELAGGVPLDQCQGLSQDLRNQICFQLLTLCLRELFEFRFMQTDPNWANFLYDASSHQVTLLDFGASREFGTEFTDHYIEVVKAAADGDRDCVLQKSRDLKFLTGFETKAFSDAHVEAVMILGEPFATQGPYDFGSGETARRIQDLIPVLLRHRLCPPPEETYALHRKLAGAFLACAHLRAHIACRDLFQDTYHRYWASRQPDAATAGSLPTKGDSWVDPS
The assay is described as follows: Selectivity interaction (KinomeScan (DiscoverX)) EUB0000607a ADCK4. Particulars: at 10 µM.

Assay [6] addresses LIM domain kinase 1 (Homo sapiens) (UniProt P53667). The assay is described as follows: Selectivity interaction (KinomeScan (DiscoverX)) EUB0000655a LIMK1. Particulars: at 10 µM.
The target in assay [7] is MAP kinase-interacting serine/threonine-protein kinase 1 (Homo sapiens) (UniProt Q9BUB5). The assay is described as follows: Selectivity interaction (Kinase panel (Invitrogen)) EUB0000639a MKNK1. Particulars: at 200 nM.
Chain of MAP kinase-interacting serine/threonine-protein kinase 1 (Homo sapiens) (Q9BUB5 whole entry, looked up): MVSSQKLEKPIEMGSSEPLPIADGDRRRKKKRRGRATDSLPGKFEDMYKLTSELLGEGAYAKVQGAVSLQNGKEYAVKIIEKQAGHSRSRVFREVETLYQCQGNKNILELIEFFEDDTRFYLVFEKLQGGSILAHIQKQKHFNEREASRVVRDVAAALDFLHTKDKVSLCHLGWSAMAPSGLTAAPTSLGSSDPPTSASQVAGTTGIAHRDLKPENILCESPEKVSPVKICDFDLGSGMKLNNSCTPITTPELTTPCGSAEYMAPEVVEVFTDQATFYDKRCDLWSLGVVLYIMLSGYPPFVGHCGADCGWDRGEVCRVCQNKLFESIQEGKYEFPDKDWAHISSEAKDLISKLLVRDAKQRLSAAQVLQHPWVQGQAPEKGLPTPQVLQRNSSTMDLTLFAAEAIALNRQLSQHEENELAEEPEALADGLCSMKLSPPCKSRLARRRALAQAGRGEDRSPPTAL
Assay [8] concerns the target Serine/threonine-protein kinase 24 (Homo sapiens) (UniProt Q9Y6E0). Briefly: Selectivity interaction (ActivX KiNativ screen (kinase selectivity in THP-1 cell lysates)) EUB0000639a STK24. Particulars: lysate, at 1 µM. Type of assay: subcellular.
Assay [9] concerns the target Tyrosine-protein kinase SYK (Homo sapiens, UniProt P43405). Particulars: at 10 µM.
For assay [10], the target named is Ribosomal protein S6 kinase alpha-5 (Homo sapiens) (UniProt O75582). Briefly: Selectivity interaction (KinomeScan (DiscoverX)) EUB0000695a RPS6KA5. The settings on record: at 100 nM.
Chain of Ribosomal protein S6 kinase alpha-5 (Homo sapiens) (O75582 whole entry, looked up): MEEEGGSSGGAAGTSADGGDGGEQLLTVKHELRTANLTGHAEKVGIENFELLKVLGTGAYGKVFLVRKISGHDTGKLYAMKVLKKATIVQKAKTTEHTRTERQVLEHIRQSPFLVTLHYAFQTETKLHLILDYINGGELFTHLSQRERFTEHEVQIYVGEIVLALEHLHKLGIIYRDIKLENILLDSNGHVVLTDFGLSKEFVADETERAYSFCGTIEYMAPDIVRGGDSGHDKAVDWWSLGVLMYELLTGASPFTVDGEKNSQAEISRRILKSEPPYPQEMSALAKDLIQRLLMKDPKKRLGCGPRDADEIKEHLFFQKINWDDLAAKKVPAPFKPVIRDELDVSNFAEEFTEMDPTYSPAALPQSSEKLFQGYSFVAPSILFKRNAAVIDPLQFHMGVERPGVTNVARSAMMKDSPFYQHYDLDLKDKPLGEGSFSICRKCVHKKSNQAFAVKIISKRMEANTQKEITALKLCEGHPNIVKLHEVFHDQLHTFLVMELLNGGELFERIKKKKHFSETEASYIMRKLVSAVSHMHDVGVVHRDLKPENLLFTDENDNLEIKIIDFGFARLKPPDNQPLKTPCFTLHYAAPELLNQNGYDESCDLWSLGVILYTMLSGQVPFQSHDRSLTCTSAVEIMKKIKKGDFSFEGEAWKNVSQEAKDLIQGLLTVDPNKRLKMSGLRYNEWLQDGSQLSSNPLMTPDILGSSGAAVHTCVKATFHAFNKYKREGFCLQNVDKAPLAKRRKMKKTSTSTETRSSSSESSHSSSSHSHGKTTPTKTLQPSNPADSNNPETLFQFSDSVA
Assay [11] addresses Serine/threonine-protein kinase 35 (Homo sapiens) (UniProt Q8TDR2). Briefly: Selectivity interaction (KinomeScan (DiscoverX)) EUB0000695a STK35. Particulars: at 100 nM.
Assay [12] addresses T3, Serine/threonine-protein kinase tousled-like 1 (Homo sapiens) (UniProt Q9UKI8).
T3 sequence (whole entry): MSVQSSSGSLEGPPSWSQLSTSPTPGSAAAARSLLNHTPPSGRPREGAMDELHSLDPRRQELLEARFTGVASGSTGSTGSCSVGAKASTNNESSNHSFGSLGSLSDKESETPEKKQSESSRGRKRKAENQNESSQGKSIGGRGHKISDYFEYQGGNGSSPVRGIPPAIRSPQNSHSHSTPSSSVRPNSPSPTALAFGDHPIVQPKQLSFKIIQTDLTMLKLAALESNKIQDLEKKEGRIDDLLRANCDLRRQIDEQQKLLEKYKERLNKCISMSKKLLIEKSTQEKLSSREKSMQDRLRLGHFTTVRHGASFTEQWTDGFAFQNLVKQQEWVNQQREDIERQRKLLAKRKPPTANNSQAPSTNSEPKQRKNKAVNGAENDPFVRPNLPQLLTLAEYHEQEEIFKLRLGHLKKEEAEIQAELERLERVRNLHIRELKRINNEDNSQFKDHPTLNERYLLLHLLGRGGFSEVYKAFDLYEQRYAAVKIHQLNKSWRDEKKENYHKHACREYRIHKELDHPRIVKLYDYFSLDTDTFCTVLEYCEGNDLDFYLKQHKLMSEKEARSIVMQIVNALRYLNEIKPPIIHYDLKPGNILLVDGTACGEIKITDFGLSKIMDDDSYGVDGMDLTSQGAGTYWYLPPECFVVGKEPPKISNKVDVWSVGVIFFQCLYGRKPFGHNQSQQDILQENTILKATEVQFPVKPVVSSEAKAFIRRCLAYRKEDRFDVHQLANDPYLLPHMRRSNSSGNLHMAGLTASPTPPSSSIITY
The assay is described as follows: Selectivity interaction (KinomeScan (DiscoverX)) EUB0000045b TLK1.

Assay [13] addresses Ephrin type-A receptor 5 (Homo sapiens) (UniProt P54756). Briefly: Selectivity interaction (KinomeScan (DiscoverX)) EUB0000045b EPHA5.

Chain of Ephrin type-A receptor 5 (Homo sapiens) (P54756 whole entry): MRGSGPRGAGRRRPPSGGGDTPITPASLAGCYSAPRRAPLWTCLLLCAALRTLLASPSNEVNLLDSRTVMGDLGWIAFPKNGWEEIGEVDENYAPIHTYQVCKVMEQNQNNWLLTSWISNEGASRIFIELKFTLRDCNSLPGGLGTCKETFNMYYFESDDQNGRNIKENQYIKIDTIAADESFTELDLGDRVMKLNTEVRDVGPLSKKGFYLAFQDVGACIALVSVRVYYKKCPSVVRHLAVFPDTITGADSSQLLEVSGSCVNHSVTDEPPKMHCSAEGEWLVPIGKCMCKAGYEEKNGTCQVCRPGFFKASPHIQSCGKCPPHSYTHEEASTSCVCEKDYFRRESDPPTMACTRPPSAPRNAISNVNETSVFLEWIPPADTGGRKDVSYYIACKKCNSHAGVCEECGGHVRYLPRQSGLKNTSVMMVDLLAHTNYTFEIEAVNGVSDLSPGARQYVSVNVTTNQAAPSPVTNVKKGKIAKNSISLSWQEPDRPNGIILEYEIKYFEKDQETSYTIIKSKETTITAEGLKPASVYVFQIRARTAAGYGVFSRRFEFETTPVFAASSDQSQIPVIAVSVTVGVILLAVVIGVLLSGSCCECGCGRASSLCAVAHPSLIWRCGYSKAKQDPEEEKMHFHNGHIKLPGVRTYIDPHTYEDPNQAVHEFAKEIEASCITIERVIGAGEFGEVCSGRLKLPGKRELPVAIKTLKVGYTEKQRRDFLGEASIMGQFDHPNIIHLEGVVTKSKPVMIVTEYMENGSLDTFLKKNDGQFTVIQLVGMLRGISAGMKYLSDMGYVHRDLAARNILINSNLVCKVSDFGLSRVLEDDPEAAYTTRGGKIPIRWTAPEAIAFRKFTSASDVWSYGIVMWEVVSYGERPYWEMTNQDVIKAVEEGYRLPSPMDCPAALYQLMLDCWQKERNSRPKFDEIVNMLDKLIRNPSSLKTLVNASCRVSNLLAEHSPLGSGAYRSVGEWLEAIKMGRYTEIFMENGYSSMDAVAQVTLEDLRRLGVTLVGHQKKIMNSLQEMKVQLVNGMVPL
Chain of Fibroblast growth factor receptor 2 (Homo sapiens) (P21802 22-821 limits assumed): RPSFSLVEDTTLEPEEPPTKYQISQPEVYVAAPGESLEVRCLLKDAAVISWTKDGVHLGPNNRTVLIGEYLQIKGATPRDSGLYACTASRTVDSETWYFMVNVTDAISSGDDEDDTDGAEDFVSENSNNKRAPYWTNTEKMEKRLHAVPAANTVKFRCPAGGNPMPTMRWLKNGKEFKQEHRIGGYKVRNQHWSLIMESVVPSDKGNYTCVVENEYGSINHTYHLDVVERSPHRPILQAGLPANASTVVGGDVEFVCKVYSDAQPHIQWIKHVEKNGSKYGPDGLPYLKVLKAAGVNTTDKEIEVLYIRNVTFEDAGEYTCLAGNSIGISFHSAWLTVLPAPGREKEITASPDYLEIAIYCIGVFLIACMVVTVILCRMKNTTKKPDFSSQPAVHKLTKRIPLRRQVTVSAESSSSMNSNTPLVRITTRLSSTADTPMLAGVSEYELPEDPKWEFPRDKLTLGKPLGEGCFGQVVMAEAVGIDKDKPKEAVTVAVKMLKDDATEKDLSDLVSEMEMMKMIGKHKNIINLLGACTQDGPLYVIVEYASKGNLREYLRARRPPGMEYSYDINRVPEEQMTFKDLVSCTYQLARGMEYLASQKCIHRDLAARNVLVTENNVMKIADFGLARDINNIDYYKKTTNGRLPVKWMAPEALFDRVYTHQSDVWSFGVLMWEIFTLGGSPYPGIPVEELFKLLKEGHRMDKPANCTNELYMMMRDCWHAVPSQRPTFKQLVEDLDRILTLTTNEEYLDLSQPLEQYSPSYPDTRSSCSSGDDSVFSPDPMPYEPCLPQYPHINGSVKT
Chain of Serine/threonine-protein kinase 35 (Homo sapiens) (Q8TDR2 whole entry): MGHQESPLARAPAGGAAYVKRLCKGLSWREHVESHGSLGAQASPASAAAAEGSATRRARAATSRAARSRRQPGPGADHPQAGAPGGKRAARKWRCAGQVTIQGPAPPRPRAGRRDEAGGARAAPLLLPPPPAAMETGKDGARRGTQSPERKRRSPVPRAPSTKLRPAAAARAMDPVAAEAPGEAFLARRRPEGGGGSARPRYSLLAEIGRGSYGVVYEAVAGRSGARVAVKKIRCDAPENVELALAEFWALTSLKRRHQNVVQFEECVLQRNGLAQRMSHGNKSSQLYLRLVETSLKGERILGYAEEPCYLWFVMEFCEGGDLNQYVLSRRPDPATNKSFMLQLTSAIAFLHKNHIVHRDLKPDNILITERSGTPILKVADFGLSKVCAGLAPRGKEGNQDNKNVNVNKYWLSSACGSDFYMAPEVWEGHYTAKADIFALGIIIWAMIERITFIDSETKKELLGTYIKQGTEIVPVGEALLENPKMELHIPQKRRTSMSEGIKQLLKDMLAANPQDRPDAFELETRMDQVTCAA
Chain of LIM domain kinase 1 (Homo sapiens) (P53667 whole entry, looked up, the tested form may be a part): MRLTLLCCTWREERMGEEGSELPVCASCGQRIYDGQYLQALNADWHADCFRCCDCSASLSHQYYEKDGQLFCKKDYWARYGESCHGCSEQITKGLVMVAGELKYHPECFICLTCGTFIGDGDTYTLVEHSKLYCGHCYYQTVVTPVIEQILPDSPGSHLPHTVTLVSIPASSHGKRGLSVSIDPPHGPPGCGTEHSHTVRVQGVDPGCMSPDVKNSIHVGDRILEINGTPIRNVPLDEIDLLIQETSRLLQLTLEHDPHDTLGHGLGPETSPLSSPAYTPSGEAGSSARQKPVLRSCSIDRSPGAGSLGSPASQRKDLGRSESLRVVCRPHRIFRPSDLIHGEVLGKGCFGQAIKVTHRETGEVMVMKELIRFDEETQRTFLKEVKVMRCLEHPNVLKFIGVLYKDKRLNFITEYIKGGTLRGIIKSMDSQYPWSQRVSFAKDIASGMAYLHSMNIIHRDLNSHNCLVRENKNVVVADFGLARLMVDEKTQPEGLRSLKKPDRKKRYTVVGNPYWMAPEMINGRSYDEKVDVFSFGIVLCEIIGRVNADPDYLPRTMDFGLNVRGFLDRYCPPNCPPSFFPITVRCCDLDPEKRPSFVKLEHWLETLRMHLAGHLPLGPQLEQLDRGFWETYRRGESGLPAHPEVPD
Chain of Serine/threonine-protein kinase 24 (Homo sapiens) (Q9Y6E0 whole entry, looked up): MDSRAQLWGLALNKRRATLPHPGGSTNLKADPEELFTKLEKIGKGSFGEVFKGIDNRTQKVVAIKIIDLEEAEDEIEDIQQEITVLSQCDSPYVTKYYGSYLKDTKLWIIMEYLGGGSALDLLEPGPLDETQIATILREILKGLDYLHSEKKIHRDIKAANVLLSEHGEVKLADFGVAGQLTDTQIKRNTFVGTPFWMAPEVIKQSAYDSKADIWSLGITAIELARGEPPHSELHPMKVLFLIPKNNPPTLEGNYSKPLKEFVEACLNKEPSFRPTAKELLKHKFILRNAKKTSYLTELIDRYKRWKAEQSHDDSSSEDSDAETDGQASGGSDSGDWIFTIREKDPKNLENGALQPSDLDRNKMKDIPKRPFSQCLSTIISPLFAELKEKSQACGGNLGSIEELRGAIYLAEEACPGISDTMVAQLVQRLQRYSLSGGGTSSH

As for `Cn1cc(-n2cnc3c(NCc4nc5cc(Cl)c(Cl)cc5[nH]4)nc(N4CCOCC4)nc32)cn1`, the % of control is -4.28% in assay [1] and 8.66% in [2].
With `CN(C)C/C=C/C(=O)Nc1ccc(C(=O)N2CCCC(Nc3ncc(Cl)c(-c4c[nH]c5ccccc45)n3)C2)cc1` (stereo not given), the % of control in assay [3] stood at 67%; in assay [4], 97%.
As for `CNC(=O)Nc1ccc(-c2nc(N3CC4CCC(C3)O4)c3cnn(C4CCC5(CC4)OCCO5)c3n2)cc1`, the % of control in [5] came out at 100%.
As for `CN(C)CCOc1ccc(-c2nc(-c3ccncc3)c(-c3ccc4c(c3)CC/C4=N\O)[nH]2)cc1`, the % of control in assay [6] came to 100%.
For `CC[C@@H]1[C@H](F)C(=O)N[C@@H]1COc1nccc2cc(C(N)=O)c(OC)cc12` [ZIMLOVISERTIB], the figures for the % of inhibition in assay [7] and in assay [8] were 46.2% and 5.9%, respectively.
For `CCN(CC)CCCCNc1ncc2cc(-c3cc(OC)cc(OC)c3)c(NC(=O)NC(C)(C)C)nc2n1`, the % of control in [9] turned out to be 100%.
Take `Cc1cc(F)c(C(=O)Nc2cccc(-c3nncn3C(C)C)n2)cc1-n1cnc(C2CC2)c1`: the % of control in [10] and in assay [11] was 100% throughout.
As to `C=CC(=O)Nc1cc(-n2c(=O)ccc3cnc4ccc(-c5ccc(NS(C)(=O)=O)cc5)cc4c32)ccc1C`, the % of control in [12] (at 1 µM) was 86%; in assay [12] (at 10 µM), 96%; in [13] (at 1 µM), 100%; in assay [13] (at 10 µM) it was 97%.
